The text below walks through data of US11873295B2, “Allosteric chromenone inhibitors of phosphoinositide 3-kinase (PI3K) for the treatment of disease” (Petra Pharma Corporation, priority 2021, dated 2024).

The target in experiment [1] is T1, human full length PIK3KA H1047R mutant (p110α/p85α complex) (Homo sapiens, UniProt P42336, H1047R).
T1 construct: Recombinant, catalytically active human full length PIK3KA Wild-type and H1047R mutant were purchased as 1:1 complex; 6xHis (N); purchased EMD Millipore Sigma 14-792M
The experiment can be described thus: PI3K-alpha kinase (PIK3CA) biochemical activity, H1047R mutant, ADP-Glo. Conditions: PI3K-α (PIK3CA) biochemical, H1047R mutant, Soy PI lipid substrate. Put shortly: (§1)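 Full-length His-p110α/p85α complex, wild-type or H1047R, 1–5 nM, preincubated with compound 1 h at 27 °C in HEPES pH 7.4, 25 mM MgCl2, 0.01% Triton X-100, 1% DMSO. Reaction with 20 μM ATP and 50 μM PIP2diC8 or soy PI at 27 °C to ~10% ATP conversion; ADP-Glo luminescence. IC50 from 10-point four-parameter logistic fit.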

In experiment [2] the test system is PI3K-α (PIK3CA) in MDA-MB-453 cells. The experiment can be described thus: PI3K-alpha kinase (PIK3CA) activity in vitro cell based assay, MDA-MB-453 cells, AlphaLisa SureFire. Conditions: 0% FBS, 3 hours treatment, relative IC50. As to the method:
PI3K-Alpha Kinase (PIK3CA) Activity In Vitro Cell Based Assay and Determining IC50 Values for Inhibitors
The MDA-MB-453 (ATCC-HTB-131) cell line was obtained from the American Type Culture Collection (Manassas, VA). Cells were maintained in Dulbecco's Modified Eagle Media (DMEM, Gibco 11965-092) supplemented with 10% Fetal Bovine Serum, heat inactivated (FBS HI, Gibco 10082-147), 1× non-essential amino acids (NEAA, Gibco 11140-050), and 1 mM sodium pyruvate (Gibco 11360-070). Cultures were maintained in a humidified incubator at 37° C. under 5% CO2/95% air.
For compound testing in 0% FBS, MDA-MB-453 cells were seeded at a density of 1.5×10^4 cells per well in white 384-well plates in 20 μl of Minimum Essential Media (MEM) assay media with 1×NEAA, 1 mM sodium pyruvate, and 1 μg/mL human insulin (Sigma I9278). Compounds dissolved in 10 mM stock solutions in DMSO were serially diluted 1:3 in DMSO to generate a 10-point dilution series and plated using an acoustic liquid handler system (Echo 550 Series Liquid Handler, Labcyte). A 5× intermediate compound dilution plate in MEM with 1×NEAA and 1 mM sodium pyruvate (150 μM starting compound concentration in 1.5% DMSO) was then prepared. Five μl of the intermediate serially diluted compounds were added to the cell plate to final concentrations ranging from […] in 0.3% DMSO. 0.3% DMSO alone was used to establish the maximum (MAX) signal and GDC-0032 at a final concentration of 1 μM was used as a reference compound for the minimum (MIN) signal. After 3 hours treatment, the medium was removed, and the cells lysed in 10 μL of 1× SureFire Lysis buffer with shaking for 10 minutes at room temperature. The Acceptor Mix (Reaction Buffer 1+Reaction Buffer 2+Activation Buffer+SureFire Ultra Acceptor Beads) was prepared by diluting Activation buffer 25-fold in combined Reaction Buffer 1 and Reaction Buffer 2. The Acceptor beads were diluted 50-fold in the combined Reaction Buffers. Five μL of Acceptor Mix was added to each well, the plate was sealed and covered with foil and incubated for 1 hour at room temperature. The Donor Mix (dilution buffer+SureFire Ultra Donor Beads) was prepared by diluting Donor Beads 50-fold in dilution buffer. Five μL of the Donor Mix was added to each well and the plate sealed and covered with foil and incubated for 1 hour at room temperature in the dark. The plates were read on a Neo2 plate reader instrument from Biotek using standard AlphaLisa settings. Compounds were tested in duplicate and the average % inhibition at each compound concentration was used to generate a single dose response curve. The data were processed using the Genedata-Screener tool. Relative IC50 values were determined using luminescence units by calculating percent inhibition with respect to the in-plate “MIN” (GDC-0032 reference control) and “MAX” (DMSO) controls. The data was analyzed using a 4-parameter nonlinear logistic equation (four-parameter logistic concentration-response curve): Y=bottom+[(top−bottom)/1+(X/IC50)slope] where Y=% inhibition, X=concentration of inhibitor, bottom=minimum value of y attained by curve-fit, top=maximum value of y attained by curve-fit and slope=steepness of curve at the IC50. % Inhibition=[(signal at X−median Min)/(median Max−median Min)]×100 IC50: concentration of compound that reduces a given response (ligand binding, enzyme response) by 50%. Relative IC50: concentration giving half the compound's maximum response.
For IC50 values shown in Table B, “A” means IC50<50 nM; “B” means IC50 ranging between 50 nM and 100 nM; “C” means IC50 ranging between 100 nM and 500 nM; “D” means IC50>500 nM.
A general note: Alpha assays give light when donor and acceptor beads are brought close together.

The target in experiment [3] is T2, human full length PIK3KA Wild-type (p110α/p85α complex) (Homo sapiens, UniProt P42336).
T2 construct: Recombinant, catalytically active human full length PIK3KA Wild-type and H1047R mutant were purchased as 1:1 complex; 6xHis (N); purchased EMD Millipore Sigma 14-602M
The experiment can be described thus: PI3K-alpha kinase (PIK3CA) biochemical activity, wild-type, ADP-Glo. Conditions: PI3K-α (PIK3CA) biochemical, Soy PI lipid substrate. Put shortly:
as §1

Molecules are shown by their SMILES. Some results are limits rather than exact numbers.

For orientation: IC50 means the midpoint of a concentration-inhibition curve. A high value points to lower potency.

T1 sequence (P42336 whole entry H1047R): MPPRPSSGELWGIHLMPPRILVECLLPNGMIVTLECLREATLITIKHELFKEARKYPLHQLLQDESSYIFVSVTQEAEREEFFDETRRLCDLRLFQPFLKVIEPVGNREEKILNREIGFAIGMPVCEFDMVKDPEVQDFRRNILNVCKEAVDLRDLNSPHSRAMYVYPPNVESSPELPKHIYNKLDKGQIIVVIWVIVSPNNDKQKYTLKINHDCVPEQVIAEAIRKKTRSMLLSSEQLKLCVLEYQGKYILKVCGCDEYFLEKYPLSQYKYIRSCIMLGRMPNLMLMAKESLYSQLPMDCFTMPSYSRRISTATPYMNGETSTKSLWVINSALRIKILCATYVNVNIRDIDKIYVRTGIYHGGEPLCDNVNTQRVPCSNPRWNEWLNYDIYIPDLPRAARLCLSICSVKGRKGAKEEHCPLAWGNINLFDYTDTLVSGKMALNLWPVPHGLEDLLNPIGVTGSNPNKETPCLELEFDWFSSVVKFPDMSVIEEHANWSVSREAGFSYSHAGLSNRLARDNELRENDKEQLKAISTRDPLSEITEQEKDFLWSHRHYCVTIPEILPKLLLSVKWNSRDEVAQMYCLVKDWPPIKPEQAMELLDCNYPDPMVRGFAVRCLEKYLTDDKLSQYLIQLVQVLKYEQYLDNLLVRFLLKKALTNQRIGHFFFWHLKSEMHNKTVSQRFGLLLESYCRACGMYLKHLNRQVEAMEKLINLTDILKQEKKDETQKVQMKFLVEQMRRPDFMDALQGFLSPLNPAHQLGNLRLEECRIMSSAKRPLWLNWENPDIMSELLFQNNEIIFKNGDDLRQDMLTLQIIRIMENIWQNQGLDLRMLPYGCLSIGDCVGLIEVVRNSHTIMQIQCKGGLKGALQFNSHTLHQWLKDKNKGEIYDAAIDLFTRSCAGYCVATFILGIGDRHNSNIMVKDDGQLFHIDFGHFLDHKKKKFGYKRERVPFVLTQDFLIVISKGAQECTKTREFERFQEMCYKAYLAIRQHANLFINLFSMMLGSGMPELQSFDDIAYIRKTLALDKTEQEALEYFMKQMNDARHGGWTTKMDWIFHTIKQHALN
T1 sequence (P27986 whole entry partner): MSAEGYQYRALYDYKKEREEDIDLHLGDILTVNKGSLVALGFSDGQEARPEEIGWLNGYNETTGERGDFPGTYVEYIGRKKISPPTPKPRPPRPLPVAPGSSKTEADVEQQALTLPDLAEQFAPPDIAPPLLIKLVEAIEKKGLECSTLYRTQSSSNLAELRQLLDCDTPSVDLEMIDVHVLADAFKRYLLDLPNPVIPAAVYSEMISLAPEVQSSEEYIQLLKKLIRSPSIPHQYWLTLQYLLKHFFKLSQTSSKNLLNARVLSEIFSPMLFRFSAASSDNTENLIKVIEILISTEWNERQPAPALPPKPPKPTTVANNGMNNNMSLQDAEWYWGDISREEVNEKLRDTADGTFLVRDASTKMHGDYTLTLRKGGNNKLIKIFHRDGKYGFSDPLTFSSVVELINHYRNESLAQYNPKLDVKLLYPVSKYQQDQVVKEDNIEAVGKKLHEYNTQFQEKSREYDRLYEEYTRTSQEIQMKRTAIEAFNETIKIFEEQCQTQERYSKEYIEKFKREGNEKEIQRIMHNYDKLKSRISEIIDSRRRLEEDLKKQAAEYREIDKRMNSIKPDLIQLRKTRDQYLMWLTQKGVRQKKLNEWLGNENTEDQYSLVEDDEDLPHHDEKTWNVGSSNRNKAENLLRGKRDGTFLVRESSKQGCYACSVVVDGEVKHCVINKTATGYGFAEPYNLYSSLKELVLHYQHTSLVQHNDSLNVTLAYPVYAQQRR

For the compound `Cc1cc([C@@H](C)Nc2ccc(C#N)nc2C(=O)O)c2oc(-c3ccccc3)c(C)c(=O)c2c1` (single isomer, unassigned; isomer 1) [Example 159], the IC50 was under 500 nM in experiment [1]; under 50 nM in experiment [2] (Homo sapiens, MDA-MB-453, 3 h); 500 to 1000 nM in experiment [3].
As for `Cc1cc([C@@H](C)Nc2ccc(C#N)nc2C(=O)O)c2oc(-c3ccccc3)c(C)c(=O)c2c1` (single isomer, unassigned; isomer 2) [Example 160], the IC50 in experiment [1] was under 500 nM; in experiment [2] it was 100 to 500 nM; in experiment [3], 1000 to 5000 nM.
Consider `Cc1cc([C@@H](C)Nc2ccc(Cl)nc2C(=O)O)c2oc(-c3ccc(F)c(F)c3)c(C)c(=O)c2c1` [Example 113, 6-Chloro-3-[[(1R)-1-[2-(3,4-difluorophenyl)-3,6-dimethyl-4-oxo-chromen-8-yl]ethyl]amino]pyridine-2-carboxylic acid], for which the 50% inhibitory concentration (IC50) is under 500 nM in experiment [1]; under 50 nM in experiment [2] (Homo sapiens, MDA-MB-453, 3 h); 1000 to 5000 nM in experiment [3].
Taken in the same sequence, the figures for `Cc1cc([C@@H](C)Nc2ccccc2C(=O)O)c2oc(-c3cccc(C(C)(C)C#N)c3)c(C)c(=O)c2c1` [Example 117, 2-[[(1R)-1-[2-[3-(1-Cyano-1-methyl-ethyl)phenyl]-3,6-dimethyl-4-oxo-chromen-8-yl]ethyl]amino]benzoic acid 2,2,2-trifluoroacetic acid] were under 500 nM, under 50 nM and 1000 to 5000 nM.
Regarding `Cc1cc([C@@H](C)Nc2cccc(Cl)c2C(=O)O)c2oc(-c3ccccc3)c(C)c(=O)c2c1` [Example 76, 2-Chloro-6-[[(1R)-1-(3,6-dimethyl-4-oxo-2-phenyl-chromen-8-yl)ethyl]amino]benzoic acid], the IC50 in experiment [1] is under 500 nM; in experiment [2] (Homo sapiens, MDA-MB-453, 3 h), under 50 nM; in experiment [3] it was 5000 to 10000 nM.
Taken in the same sequence, the figures for `Cc1cc([C@@H](C)Nc2ccccc2C(=O)O)c2oc(-c3ccccc3C#N)cc(=O)c2c1` [Example 15, 2-[[(1R)-1-[2-(2-Cyanophenyl)-6-methyl-4-oxo-chromen-8-yl]ethyl]amino]benzoic acid] were under 500 nM, under 50 nM and 5000 to 10000 nM.
Take `Cc1cc([C@@H](C)Nc2ccc(C#N)cc2C(=O)O)c2oc(-c3ccccc3)c(C)c(=O)c2c1` (single isomer, unassigned; isomer 1) [Example 157]: the IC50 in experiment [1] is 5000 to 10000 nM; in experiment [2], over 500 nM; in experiment [3], 5000 to 10000 nM.
As to `COc1ccc(NC(C)c2cc(C)cc3c(=O)c(C)c(-c4ccccc4)oc23)c(C(=O)O)n1` (single isomer, unassigned; isomer 1) [Example 109, 3-[1-(3,6-Dimethyl-4-oxo-2-phenyl-chromen-8-yl)ethylamino]-6-methoxy-pyridine-2-carboxylic acid, Isomer 1], the IC50 in experiment [1] was under 500 nM; in experiment [2] it was under 50 nM; in experiment [3], 500 to 1000 nM.
As for `Cc1cc(C(C)Nc2ccc(Cl)nc2C(=O)O)c2oc(-c3ccccc3)c(I)c(=O)c2c1` (stereo not drawn) [Example 140, 6-Chloro-3-[1-(3-iodo-6-methyl-4-oxo-2-phenyl-chromen-8-yl)ethylamino]pyridine-2-carboxylic acid 2,2,2-trifluoroacetic acid], the IC50 in experiment [1] was under 500 nM; in experiment [2] (Homo sapiens, MDA-MB-453, 3 h), under 50 nM; in experiment [3] it was 1000 to 5000 nM.
For the compound `CNC(=O)c1ccc(-c2oc3c([C@@H](C)Nc4ccccc4C(=O)O)cc(C)cc3c(=O)c2C)cc1` [Example 151, 2-[[(1R)-1-[3,6-Dimethyl-2-[4-(methylcarbamoyl)phenyl]-4-oxo-chromen-8-yl]ethyl]amino]benzoic acid], the IC50 in experiment [1] is under 500 nM; in experiment [2] (Homo sapiens, MDA-MB-453, 3 h) it was under 50 nM; in experiment [3], 1000 to 5000 nM.
Turning to `Cc1cc(C(C)Nc2ccccc2C(=O)O)c2oc(-c3ccc(N4CCCC4)cc3)cc(=O)c2c1` (single isomer, unassigned; isomer 2) [Example 55, 2-[1-[6-Methyl-4-oxo-2-(4-pyrrolidin-1-ylphenyl)chromen-8-yl]ethylamino]benzoic acid, Isomer 2], the IC50 in experiment [1] was under 500 nM; in experiment [2] (Homo sapiens, MDA-MB-453, 3 h), 100 to 500 nM; in experiment [3], 1000 to 5000 nM.
Turning to `Cc1cc([C@@H](C)Nc2ccccc2C(=O)O)c2oc(-c3ccccc3C)cc(=O)c2c1` [Example 14, 2-[[(1R)-1-[6-Methyl-2-(o-tolyl)-4-oxo-chromen-8-yl]ethyl]amino]benzoic acid], the IC50 in experiment [1] is under 500 nM; in experiment [2] (Homo sapiens, MDA-MB-453, 3 h), under 50 nM; in experiment [3] it was over 10000 nM.
Taken in the same sequence, the figures for `Cc1cc([C@@H](C)Nc2ccccc2C(=O)O)c2oc(-c3ccc(F)cc3)c(C)c(=O)c2c1` [Example 29, 2-[[(1R)-1-[2-(4-Fluorophenyl)-3,6-dimethyl-4-oxo-chromen-8-yl]ethyl]amino]benzoic acid] were under 500 nM, under 50 nM and 500 to 1000 nM.
Taken in the same sequence, the figures for `Cc1cc(C(C)Nc2ccccc2C(=O)O)c2oc(-c3ccccc3)c(F)c(=O)c2c1` (single isomer, unassigned; isomer 1) [Example 132, 2-[1-(3-Fluoro-6-methyl-4-oxo-2-phenyl-chromen-8-yl)ethylamino]benzoic acid, Isomer 1] were under 500 nM, under 50 nM and 1000 to 5000 nM.
Taken in the same sequence, the figures for `Cc1cc([C@@H](C)Nc2ccccc2C(=O)O)c2oc(-c3cccc(F)c3)c(C)c(=O)c2c1` [Example 28, 2-[[(1R)-1-[2-(3-Fluorophenyl)-3,6-dimethyl-4-oxo-chromen-8-yl]ethyl]amino]benzoic acid] were under 500 nM, under 50 nM and 1000 to 5000 nM.
On to `Cc1cc([C@@H](C)Nc2ccc(Br)nc2C(=O)O)c2oc(-c3ccccc3)c(C)c(=O)c2c1` [Example 35, 6-Bromo-3-[[(1R)-1-(3,6-dimethyl-4-oxo-2-phenyl-chromen-8-yl)ethyl]amino]-pyridine-2-carboxylic acid], for which the IC50 in experiment [1] was under 500 nM; in experiment [2] (Homo sapiens, MDA-MB-453, 3 h), under 50 nM; in experiment [3] it was 1000 to 5000 nM.
Taken in the same sequence, the figures for `Cc1c(-c2ccccc2F)oc2c([C@@H](C)Nc3ccc(Cl)nc3C(=O)O)cc(C(F)(F)F)cc2c1=O` [Example 98, 6-Chloro-3-[[(1R)-1-[2-(2-fluorophenyl)-3-methyl-4-oxo-6-(trifluoromethyl)-chromen-8-yl]ethyl]amino]pyridine-2-carboxylic acid] were under 500 nM, under 50 nM and 1000 to 5000 nM.
Take `Cc1cc(C(C)Nc2ccccc2C(=O)O)c2oc(-c3ccc(C(=O)N(C)C)cc3)cc(=O)c2c1` (single isomer, unassigned; isomer 2) [Example 50, 2-[1-[2-[4-(Dimethylcarbamoyl)-phenyl]-6-methyl-4-oxo-chromen-8-yl]ethylamino]benzoic acid, Isomer 2]: the IC50 in experiment [1] was 5000 to 10000 nM; in experiment [2] (Homo sapiens, MDA-MB-453, 3 h) it was over 500 nM; in experiment [3] it was over 10000 nM.
